Drawing on patent US6596755B2 (Dabur Research Foundation, priority 2001, dated 2003), this text covers ED50 of cytotoxicity, sarcoma tumor growth and tumor development for four compounds.

One assay concerns KB Oral. The assay is described as follows: three day MTT cytotoxicity assay, KB. Conditions: Standard (DMSO control), 72 hours. The assay is classed as cell-based, human. Here is the method: (§1) Briefly, a three day MTT cytotoxicity assay was performed, which is based on the principle of uptake of MTT (3-(4,5-dimethylthiazol-2-yl)-2,5-diphenyl tetrazolium bromide), a tetrazolium salt, by the metabolically active cells where it is metabolized by active mitochondria into a blue colored formazan product that is read spectrophoto-metrically. MTT was dissolved in phosphate buffered saline with a pH of 7.4 to obtain an MTT concentration of 5 mg/ml; the resulting mixture was filtered through a 0.22 micron filter to sterilize and remove a small amount of insoluble residue. For each type of tumor cell, 20,000 to 50,000 cells were seeded in a 96-well culture plate and incubated with the formulation or standard in a CO2 incubator for […]. […] The assay was terminated after 72 hours by adding 100 ug (20 ul) of MTT to each well, then incubating for additional one hour, and finally adding 50 ul of 10% SDS-0.01N HCl to each well to lyse the cells and dissolve formazan. After incubating for one hour, the plate was read spectrophoto-metrically at 540 nm and the percentage cytotoxicity calculated.

Another assay relates to Miapaca2 Pancreas. The assay can be described thus: three day MTT cytotoxicity assay, Miapaca2. The assay is classed as cell-based, human. Conditions: Standard (DMSO control), 72 hours. Here is the method:
as §1

Another assay has as its system DU145 Prostate. The assay is described as follows: three day MTT cytotoxicity assay, DU145. The assay is classed as cell-based, human. The settings on record: Standard (DMSO control), 72 hours. Here is the method:
as §1

The test system of the next assay is PTC Colon. The assay is described as follows: three day MTT cytotoxicity assay, PTC. The assay is classed as cell-based, human. Conditions: Standard (DMSO control), 72 hours. Here is the method:
as §1

The next assay deals with L132 Lung. The assay is described as follows: three day MTT cytotoxicity assay, L132. The assay is classed as cell-based, human. The settings on record: Standard (DMSO control), 72 hours. Here is the method: as §1
The subject of the next assay is U87MG Glioblastoma. The assay is described as follows: three day MTT cytotoxicity assay, U87MG. The assay is classed as cell-based, human. Conditions: Standard (DMSO control), 72 hours. Here is the method: as §1
In the next assay the test system is Molt 4 Leukemia. The assay is described as follows: three day MTT cytotoxicity assay, Molt 4. The assay is classed as cell-based, human. The settings on record: Standard (DMSO control), 72 hours. Here is the method: as §1
Another assay concerns sarcoma tumor. The settings on record: in vivo; cited from earlier work.
The next assay concerns sarcoma 180 cells. Conditions: injected into mice along with sarcoma 180 cells; cited from earlier work.

Regarding `CC(=O)OC(C(C)=O)N1C(=O)CCC1C(=O)OCc1ccccc1` (centres unmarked) [MGC7], the ED50 of cytotoxicity is 1850 ± 600 µM in the assay with KB Oral; 2400 ± 1000 µM in the assay on Miapaca2 Pancreas; 850 ± 300 µM in the assay on DU145 Prostate; 2400 ± 500 µM in the assay with PTC Colon; above 5000 µM with L132 Lung; 1840 ± 600 µM in the assay on U87MG Glioblastoma. The same compound gave an ED50 of cytotoxicity with Molt 4 Leukemia of 1500 ± 200 µM.

In the case of `CC(=O)C=O` [Methylglyoxal, 2-oxopropanal], the sarcoma tumor growth entry in the assay on sarcoma tumor was “significantly inhibited”. For the same compound, the tumor development result with sarcoma 180 cells is given as “no tumor developed”.

As for `CCOC(=O)C1CCC(=O)N1C(O)C(C)=O` (centres unmarked) [MGC4], the ED50 of cytotoxicity in the assay on KB Oral is 1550 ± 300 µM; with Miapaca2 Pancreas it was 4200 ± 1100 µM; with DU145 Prostate it was 1800 ± 300 µM; with PTC Colon it was 3800 ± 1100 µM; with L132 Lung, above 5000 µM; with U87MG Glioblastoma, 2400 ± 500 µM. Also, in the assay with Molt 4 Leukemia, the ED50 of cytotoxicity was 1500 ± 200 µM.

As to `COC(=O)C1CCC(=O)N1C(O)C(C)=O` (centres unmarked) [MGC1], the ED50 of cytotoxicity in the assay on KB Oral is 1700 ± 500 µM; with Miapaca2 Pancreas it was 4200 ± 1300 µM; with DU145 Prostate, 1700 ± 600 µM; in the assay with PTC Colon, 3700 ± 1400 µM; in the assay on L132 Lung, above 5000 µM; in the assay with U87MG Glioblastoma, 2250 ± 500 µM. In addition, the ED50 of cytotoxicity in the assay with Molt 4 Leukemia turned out to be 1500 ± 400 µM.
